Laboratory results reported in ChEMBL document CHEMBL2074515, “Inhibitory effect of anti-diabetic agents on rat organic anion transporter rOAT1” (Eur J Pharmacol, 2000).
pKi: −log10 of the molar value.

Biological target: T1, Solute carrier family 22 member 6 (Rattus norvegicus, UniProt O35956)
T1 sequence (O35956 whole entry): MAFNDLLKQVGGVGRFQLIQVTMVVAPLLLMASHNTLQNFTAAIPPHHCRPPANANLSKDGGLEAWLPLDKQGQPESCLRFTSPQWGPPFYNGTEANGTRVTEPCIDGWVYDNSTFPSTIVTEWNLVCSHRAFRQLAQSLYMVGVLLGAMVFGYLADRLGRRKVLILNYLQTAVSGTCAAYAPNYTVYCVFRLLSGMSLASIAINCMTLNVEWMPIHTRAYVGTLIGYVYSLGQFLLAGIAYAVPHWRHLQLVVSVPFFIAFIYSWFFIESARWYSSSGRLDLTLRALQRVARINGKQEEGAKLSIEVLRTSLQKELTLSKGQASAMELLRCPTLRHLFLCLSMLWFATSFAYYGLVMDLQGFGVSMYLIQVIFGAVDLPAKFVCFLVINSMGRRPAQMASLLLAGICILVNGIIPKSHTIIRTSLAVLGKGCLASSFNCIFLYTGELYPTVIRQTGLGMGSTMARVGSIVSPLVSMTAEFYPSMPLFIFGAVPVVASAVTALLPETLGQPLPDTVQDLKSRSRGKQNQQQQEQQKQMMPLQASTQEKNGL
Test: TP_TRANSPORTER: inhibition of PAH uptake in Xenopus laevis oocytes
Format: functional, cell-based, Oocyte

Compound | pKi
COc1ccc(Cl)cc1C(=O)NCCc1ccc(S(=O)(=O)NC(=O)NC2CCCCC2)cc1 [GLYBURIDE] | 5.80
CCCCNC(=O)NS(=O)(=O)c1ccc(C)cc1 [TOLBUTAMIDE] | 4.26
CCCNC(=O)NS(=O)(=O)c1ccc(Cl)cc1 [CHLORPROPAMIDE] | 4.40
CC(C)[C@H]1CC[C@H](C(=O)N[C@H](Cc2ccccc2)C(=O)O)CC1 [NATEGLINIDE] | 5.04
